Measured values from BindingDB's records for doi:10.1074/jbc.M113.514067 (Genentech, 2014).

Biological target: Proprotein convertase subtilisin/kexin type 9 (Homo sapiens, UniProt Q8NBP7)
Assay: PCSK9 Inhibition Assay
Description: For the peptide affinity determinations, biotinylated PCSK9 was immobilized to NeutrAvidin-coated MaxiSorp Immuno-Plates and incubated with a mixture of serially diluted synthetic peptide (Pep2-2 or Pep2 at 0-100 μM) and the correspondingpeptide-displaying phage at the earlier determined subsaturating concentration (see above). After a 1-h incubation in PBT buffer (PBS, 0.5% BSA, 0.05% Tween 20), the plate was washed extensively, and the bound phage was detected by anti-M13-HRP. The data were fitted to a four-parameter equation (KaleidaGraph) to determine the IC50 values. For IC50 measurements of the Pep2-2 derivatives (Fig. 1C) and for the truncated Pep2-8 peptides (Table 1), we used the peptides in a concentration range of 0-250 μM and the Pep2-2-displaying phage at subsaturating concentrations.

Sequence of Proprotein convertase subtilisin/kexin type 9 (Q8NBP7 31-152 limits assumed): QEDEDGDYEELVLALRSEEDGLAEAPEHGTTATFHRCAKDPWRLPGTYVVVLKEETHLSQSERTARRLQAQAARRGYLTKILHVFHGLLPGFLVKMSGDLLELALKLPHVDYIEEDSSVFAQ
Sequence of Proprotein convertase subtilisin/kexin type 9 (Q8NBP7 153-692 limits assumed): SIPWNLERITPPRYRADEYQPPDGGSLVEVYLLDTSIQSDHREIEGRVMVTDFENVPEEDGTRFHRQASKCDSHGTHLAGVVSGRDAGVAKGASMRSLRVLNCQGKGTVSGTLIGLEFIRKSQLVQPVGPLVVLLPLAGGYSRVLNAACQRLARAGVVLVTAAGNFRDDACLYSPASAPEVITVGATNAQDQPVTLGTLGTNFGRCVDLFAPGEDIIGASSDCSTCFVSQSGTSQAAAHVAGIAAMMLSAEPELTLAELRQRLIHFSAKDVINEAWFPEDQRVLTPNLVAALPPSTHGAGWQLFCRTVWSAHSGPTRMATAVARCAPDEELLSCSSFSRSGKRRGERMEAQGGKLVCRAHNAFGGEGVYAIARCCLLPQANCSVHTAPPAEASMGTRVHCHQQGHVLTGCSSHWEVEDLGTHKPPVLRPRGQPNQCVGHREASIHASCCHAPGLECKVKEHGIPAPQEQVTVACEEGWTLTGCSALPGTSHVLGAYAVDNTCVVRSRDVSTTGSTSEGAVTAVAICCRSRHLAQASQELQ

| IC50 [µM] | Compound |
| --- | --- |
| 17.6 | Ac-TVFTSWEEYL-NH2 [TVFTSWEEYL] |
| 37.7 | Ac-VVFTSWQDYLFWV-NH2 [VVFTSWQDYLFWV] |
| 4 | Ac-VFTSWEEYLLWV-NH2 [VFTSWEEYLLWV] |
| 10 | Ac-TVFTSWEEYLL-NH2 [TVFTSWEEYLL] |
| 6.2 | Ac-TVFTSWEEYLLW-NH2 [TVFTSWEEYLLW] |
| 0.76 | Ac-TVFTSWEEYLLWV-NH2 [TVFTSWEEYLLWV] |
| 1.4 | CC(=O)N[C@H](C(=O)N[C@H](C(=O)N[C@@H](Cc1ccccc1)C(=O)N[C@H](C(=O)N[C@@H](CO)C(=O)N[C@@H](Cc1c[nH]c2ccccc12)C(=O)N[C@@H](CCC(=O)O)C(=O)N[C@@H](CCC(=O)O)C(=O)N[C@@H](Cc1ccc(O)cc1)C(=O)N[C@@H](CC(C)C)C(=O)N[C@@H](CC(=O)O)C(=O)N[C@@H](Cc1c[nH]c2ccccc12)C(=O)N[C@H](C(N)=O)C(C)C)[C@@H](C)O)C(C)C)[C@@H](C)O [TVFTSWEEYLDWV] |
